Here are results for one molecule from US12365685B2, “Substituted fused aromatic ring derivative, composition and use thereof” (Shenzhen TargetRx, Inc., priority 2019, dated 2025).

One experiment relates to Ba/F3 KIF5B-RET^V804M. The experiment can be described thus: Cytotoxicity assay, Ba/F3 KIF5B-RET V804M (CellTiter-Glo). In kind it is cell-based. The following applies: Mus musculus, BaF3; 72 hrs, CTG. From the text:
[Worded in the source for another variant; this variant is reported under the same test.] (§1) Inhibitory effect of example compounds on the activity of Ba/F3 KIF5B-RET and Ba/F3 FLT3-ITD cells was detected.
(§2) Materials and reagents: fetal bovine serum (FBS) (GIBCO, Cat. No. 10099141), CellTiter-Glo® Luminescent Cell Viability Assay (Promega, Cat #G7572), 96-well clear flat-bottom black-wall plate (Corning®, Cat #3603).
(§3) • 1. Cells in the logarithmic growth phase were harvested and counted with a […]. Cell viability was detected by a trypan blue exclusion method, ensuring that cell viability was 90% or more; • 2. The cell concentration was adjusted to 3000 cells/well; 90 μl of cell suspension was added to each well of the 96-well plate; • 3. The cells in the 96-well plate were incubated overnight under the condition of 37° C., 5% CO2, and 95% humidity. Dilution and Addition of Compound: • 1. 10-fold compound solutions were formulated by 3.16-fold serial dilution starting from a concentration of 10 μM, resulting in 9 concentrations. 10 μL of the compound solutions were added in each well of the 96-well plate seeded with cells in triplicate for each compound concentration; • 2. The cells in the 96-well plate added with compounds were further incubated under the condition of 37° C., 5% CO2, and 95% humidity for 72 hrs, and then CTG analysis was carried out. Plate Reading at the End: • 1. CTG reagent was thawed, and the cell plate was equilibrated at room temperature for 30 minutes; • 2. An equal volume ([…]) of CTG solution was added to each well; • 3. The cell plate was shaken on an orbital shaker for 5 minutes to lyse the cells; • 4. The cell plate was placed at RT for 20 minutes to stabilize the luminescence signal; • 5. Luminescence value was read. Data Processing
(§4) Data were analyzed by GraphPad Prism 5.0 software, and fitted by nonlinear S-curve regression to obtain a dose-response curve, from which IC50 values were calculated, wherein A indicates IC50≤10 nM, B indicates 10 nM<IC50≤50 nM, C indicates 50 nM<IC50≤100 nM, and D indicates IC50>100 nM. cell survival (%)=(Lumtest compound−Lumculture medium control)/(Lumcell control−Lumculture medium control)×100%.
On the technique in general: ATP-based viability assays read luminescence as a measure of living cells.

For a further experiment, the target named is RET V804M (Homo sapiens (Human), UniProt P07949, V804M). The experiment can be described thus: Inhibition of kinase, RET V804M (HTRF KinEASE-TK). In kind it is biochemical. The following applies: reaction 20 minutes at room temperature. How it is done:
(§5) Ret wt (Carna, Cat. No. 08-159-10 ug), RET (V804M), Active (Signalchem, Cat. No. R02-12GG), HTRF KinEASE-TK kit (Cisbio, Cat. No. 62TK0PEC), CEP-32496 (MCE, Cat. No. HY-15200), ATP (Sigma, Cat. No. A7699), DMSO (Sigma, Cat. No. D8418-1L), DTT (Sigma, Cat. No. D0632), MgCl2 (Sigma, Cat. No. M1028), 384-well plate (Labcyte, Cat. No. P-05525-BC).
(§6) Formulation of compound: The test compounds were dissolved in DMSO to obtain 10 mM stock solutions, which were then serially diluted 3-fold in DMSO to obtain 10 concentrations. At the time of addition, the compound was further diluted 10-fold with buffer.
(§7) In 5× kinase buffer A, Ret wt or RET V804M kinase was mixed with different concentrations of compounds prepared by pre-dilution for 10 minutes. Each concentration was tested in duplicate. The corresponding substrate and ATP were added, and reaction was performed at room temperature for 20 minutes (negative and positive controls were provided: the negative control was a blank control, and the positive control was CEP-32496). After completion of the reaction, detection reagents (reagents in the HTRF KinEASE-TK kit) were added. After incubating for 30 minutes at room temperature, enzyme activity in the presence of various concentrations of the compounds of the present disclosure was determined by Envision microplate reader, and inhibitory activity of different concentrations of the compounds on enzyme activity was calculated. The inhibitory activity of different concentrations of the compounds on enzyme activity was fitted by Graphpad 5.0 software, and the IC50 value was calculated, wherein A indicates IC50 10 nM, B indicates 10 nM<IC50≤50 nM, C indicates 50 nM<IC50≤100 nM, and D indicates IC50>100 nM.

In a further experiment the test system is Ba/F3 FLT3-ITD^F691L. The experiment is described as follows: Cytotoxicity assay, Ba/F3 FLT3-ITD F691L (CellTiter-Glo). The format is cell-based. The following applies: Mus musculus, BaF3; 72 hrs, CTG.
For the next experiment, the target named is Ret wt (Homo sapiens (Human), UniProt P07949). The experiment is described as follows: Inhibition of kinase, Ret wt (HTRF KinEASE-TK). The format is biochemical. Conditions: HTRF KinEASE-TK, reaction 20 minutes at room temperature; read-out: Ret wt IC50. As for the experimental part: as §5, §6, §7
Chain of Ret wt (P07949 29-1114): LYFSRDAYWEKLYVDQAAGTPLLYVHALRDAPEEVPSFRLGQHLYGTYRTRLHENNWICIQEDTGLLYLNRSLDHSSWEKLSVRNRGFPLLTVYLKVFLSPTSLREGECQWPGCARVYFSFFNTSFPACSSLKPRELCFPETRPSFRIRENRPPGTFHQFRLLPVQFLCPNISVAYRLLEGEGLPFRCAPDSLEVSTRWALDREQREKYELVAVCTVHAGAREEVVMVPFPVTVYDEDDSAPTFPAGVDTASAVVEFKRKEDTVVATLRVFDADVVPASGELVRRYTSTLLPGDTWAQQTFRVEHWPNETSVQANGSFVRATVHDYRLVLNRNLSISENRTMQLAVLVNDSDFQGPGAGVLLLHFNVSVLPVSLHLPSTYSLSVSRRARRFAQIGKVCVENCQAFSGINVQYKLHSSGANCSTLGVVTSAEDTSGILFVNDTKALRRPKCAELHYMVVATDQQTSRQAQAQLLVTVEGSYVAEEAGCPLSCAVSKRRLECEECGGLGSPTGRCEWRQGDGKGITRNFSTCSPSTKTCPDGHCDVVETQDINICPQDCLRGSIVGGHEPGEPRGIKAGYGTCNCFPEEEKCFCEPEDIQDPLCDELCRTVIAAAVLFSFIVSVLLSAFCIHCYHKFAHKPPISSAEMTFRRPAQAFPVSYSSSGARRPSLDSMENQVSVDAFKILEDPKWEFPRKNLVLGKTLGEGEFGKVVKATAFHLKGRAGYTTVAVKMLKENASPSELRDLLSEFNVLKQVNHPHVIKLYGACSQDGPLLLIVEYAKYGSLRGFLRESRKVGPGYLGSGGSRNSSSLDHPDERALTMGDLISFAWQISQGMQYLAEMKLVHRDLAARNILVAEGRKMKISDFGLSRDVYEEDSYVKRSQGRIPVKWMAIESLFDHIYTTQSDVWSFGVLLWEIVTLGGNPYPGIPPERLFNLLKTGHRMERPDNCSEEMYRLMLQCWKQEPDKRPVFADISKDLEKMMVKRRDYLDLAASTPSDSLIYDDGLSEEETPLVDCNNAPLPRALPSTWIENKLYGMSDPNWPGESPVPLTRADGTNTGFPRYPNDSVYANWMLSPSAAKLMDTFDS
(Time-resolved FRET reads energy transfer from a long-lived donor to a nearby acceptor.)

The subject of the next experiment is Ba/F3 KIF5B-RET cells. The experiment is described as follows: Cytotoxicity assay, Ba/F3 KIF5B-RET (CellTiter-Glo). In kind it is cell-based. Conditions: Mus musculus, BaF3; 72 hrs, CTG.
Source text: as §1, §2, §3, §4

The test system of the next experiment is Ba/F3 FLT3-ITD cells. The experiment is described as follows: Cytotoxicity assay, Ba/F3 FLT3-ITD (CellTiter-Glo). The format is cell-based. The following applies: 72 hrs, CTG.
Source text: as §1, §2, §3, §4

The subject of another experiment is Ba/F3 FLT3-ITD^D835Y. The experiment is described as follows: Cytotoxicity assay, Ba/F3 FLT3-ITD D835Y (CellTiter-Glo). In kind it is cell-based. The following applies: Mus musculus, BaF3; 72 hrs, CTG.
Source text: [Worded in the source for another variant; this variant is reported under the same test.] as §1, §2, §3, §4

A further experiment deals with Ba/F3 parental. The experiment is described as follows: Cytotoxicity assay, Ba/F3 parental (CellTiter-Glo). In kind it is cell-based. Conditions: Mus musculus, BaF3; 72 hrs, CTG.
Source text: [Worded in the source for another cell line; this cell line is reported under the same test.] as §1, §2, §3, §4

Molecules are shown by their SMILES.

Chain of RET V804M (P07949 29-1114 V804M): as the sequence (P07949 29-1114) above, with V776M counted along it

For the molecule `Cn1cc(-c2ccc3c(-c4ccc(CC(=O)Nc5cc(C(C)(C)C(F)(F)F)on5)cc4)cnn3c2)cn1` [Compound T-11, 2-(4-(6-(1-methyl-1H-pyrazol-4-yl)pyrazolo[1,5-a]pyridin-3-yl)phenyl)-N-(5-(1,1,1-trifluoro-2-methylpropan-2-yl)isoxazol-3-yl)acetamide], the IC50 in the experiment on Ba/F3 KIF5B-RET^V804M is 3.66 nM; against RET V804M it was 0.87 nM; in the experiment on Ba/F3 FLT3-ITD^F691L, 1.12 nM; at Ret wt it was 0.68 nM; in the experiment with Ba/F3 KIF5B-RET cells, 15.4 nM; with Ba/F3 FLT3-ITD cells it was 0.2 nM. In addition, the IC50 with Ba/F3 FLT3-ITD^D835Y came to 1.73 nM; with Ba/F3 parental, 1400 nM.

The term IC50 denotes the concentration at which inhibition is half-maximal.
